What was measured:
Spodoptera exigua larvae [1] = settings: single ingredient, 10 ppm in tests solution
Description: (§2) The efficacy of an Abamectin 18 g/l emulsifiable concentrate formulation (EC) was tested on Spodoptera exiqua larvae on Tradescani crassifolia leaves. The test on Spodoptera exigua was done as a dip-test where Tradescani crassifolia leaves were dipped in the various tests solutions and dried. Afterwards, each leaf was infested with 5 Spodoptera exigua larvae.
(§3) Besides testing the Abamectin 18 g/l EC formulation, Abamectin 18 g/l EC formulation was tested together with 4.5 g/l and 72 g/l nicotinamide. An EC formulation comprising nicotinamide was included in the test as well.

[2] = system: Dysdercus cingulatus nymphs; format: in vivo; settings: 2000 ng applied on each nymph; 24 h after applying
Description: A range of Abamectin solutions in acetone was prepared. Similarly, a range of tocopherol, all-rac alpha, solutions in acetone was prepared. Abamectin solution (2 μl), tocopherol solution (2 μl) or both were applied topically on nymphs of Dysdercus cingulatus. Abamectin was applied dorsally while tocopherol was applied ventrally. […] The mortality of the nymphs was recorded 24 h after applying the solutions.

[3] = system: Dysdercus cingulatus nymphs; format: in vivo; settings: in total 20,000 ng/nymph applied dorsally; two replicates of ten nymphs
Description: Abamectin, Ivermectin and tocopherol solutions in acetone were prepared. Mixed solutions of either Abamectin or Ivermectin and tocopherol were also prepared. Nymphs of Dysdercus cingulatus were treated topically with Abamectin acetone solution (20,000 ng/nymph), Ivermectin acetone solution (20,000 ng/nymph), a tocopherol acetone solution (20,000 ng/nymph) or a solution containing Abamectin and tocopherol or Ivermectin and tocopherol in the ratio 1:3 (20,000 ng total/nymph). The solutions were applied dorsally on the nymphs.
The Dysdercus cingulatus mortality was followed over time and recorded. Log time-mortality curves were constructed for the Abamectin and Ivermectin solutions and for the mixtures with tocopherol. An LT50 value was calculated for each application.

[4] = system: Dysdercus cingulatus nymphs; experiment: Topical application of Abamectin/tocopherol acetone solutions, LD50 (Example 5); format: in vivo; settings: sum of Abamectin and tocopherol; mortality recorded 48 h after applying
Description: (§1) A range of Abamectin solutions in acetone was prepared. Similarly, a range of tocopherol, all-rac alpha, solutions was prepared. Mixed solutions of Abamectin and tocopherol in acetone were prepared as well. Nymphs of Dysdercus cingulatus were treated topically with either an Abamectin acetone solution (2 μl), a tocopherol acetone solution (2 μl) or mixed solutions (2 μl). The Dysdercus cingulatus mortality was recorded 48 h after applying the products.
Log dose-mortality curves were constructed for the Abamectin and the tocopherol treatments. LD50 values based on the sum of Abamectin and tocopherol contents (ng active ingredient(s) per nymph) were calculated.
From the observed LD50 values for Abamectin and tocopherol expected LD50 values for the mixtures were calculated according to Wadley's formula.

[5] = system: Dysdercus cingulatus nymphs; experiment: Topical application of Abamectin/nicotinamide acetone solutions, LD50 (Example 7); format: in vivo; settings: sum of Abamectin and nicotinamide; mortality recorded 48 h after applying
Description: as §1, with “nicotinamide” for “tocopherol, all-rac alpha,”, “nicotinamide” for “tocopherol”, “μl).” for “μl). The Dysdercus cingulatus mortality was recorded 48 h after applying the products.”
The Dysdercus cingulatus mortality was recorded 48 h after applying the products. Log dose-mortality curves were constructed for the Abamectin, the nicotinamide and for the mixed solutions. The LD50 values reflect the sum of Abamectin and nicotinamide (active ingredients) present at LD50.
From the observed LD50 values for Abamectin and nicotinamide expected LD50 values for the mixtures were calculated according to Wadley's formula.

Spodoptera exigua larvae [6] = experiment: whole plant or invertebrate; settings: read-out: Observed mortality (%)
Description: as §2, §3

| Molecule | Observed mortality (%) (Spodoptera exigua larvae [1]) | % Mortality for each ingredient [2] [%] | LT50 [3] [h] | LD50obs [4] | LD50obs [5] | mortality at 10 ppm (Spodoptera exigua larvae [6]) [%] |
| --- | --- | --- | --- | --- | --- | --- |
| Abamectin | 10 | 74 | 5.3 | 1595 ng AI(s) per nymph | 126 ng AI(s) per nymph |  |
| NC(=O)c1cccnc1 [nicotinamide] |  |  |  |  | >20,000 ng AI(s) per nymph | 0 |
